Measurements taken from US9867794B2, “Regulation of osteopontin” (Pathologica LLC, priority 2007, dated 2018).
“And” between values parts separate entries of the source, which are not always exact repeats. Equal entries are not always repeated.

Key:
Assay type in all cases: cell-based, human
ADA [1] = test: Quantitative RT-PCR, unsorted mononuclear cells, ADA
Experimental: (§1) To evaluate the effect of MGBG on gene expression, blood samples were obtained from patients (N=18, 10 HIV-infected and 8 Healthy Controls). Mononuclear cells were isolated via Percoll gradient centrifugation. The cells were split into two tubes, one treated with 10 μM of MGBG and the other non-treated. The cells were then cultured overnight in RPMI media plus 10% fetal bovine serum at 37 C under non-adherent conditions, collected, lysed using Trizol solution, and total RNA prepared according to manufacturer's instructions (Invitrogen, Carlsbad, Calif.).
(§2) Approximately 200 ng of total RNA prepared from each sample was converted to cDNA using the First Strand cDNA Synthesis Kit for RT-PCR [AMV] kit (Roche Applied Diagnostics, Indianapolis, Ind.) according to manufacturer's instructions. Around 5 ng of cDNA sample was then used for PCR performed on a LightCycler (Roche Applied Diagnostics, Indianapolis, Ind.) using the LightCycler FastStart DNA Master SYBR Green I kit. PCR conditions are as follows: 1 cycle of denaturation at 95° C. for 10 minutes, followed by 45 cycles of 95° C. for 10 seconds, 68° C. for 10 seconds, and 72° C. for 16 seconds.
(§3) The sequences of gene-specific primers evaluated are listed below. All samples were also amplified with the human β-actin LightCycler-Primer set (Roche Diagnostics).

ADA [2] = test: Microarray analysis of mononuclear cells, ADA; details: for ADA signal +, Average: 10 μM MGBG
Experimental: (§4) Blood samples were obtained from HIV infected patients (N=9) with positive viral load and reduced CD4 counts, and non-HIV infected, healthy controls (N=6). Blood was collected into heparin anticoagulant tubes and mononuclear cells were isolated by Percoll gradient centrifugation. The cells from each sample were split into 2: one-half receives MGBG at concentration of 10 μM and the other half received no treatment. All samples were then cultured overnight in RPMI media with 10% fetal bovine serum at 37° C. under non-adherent conditions. The next day cells were collected by centrifugation, washed one time with PBS, and lysed by resuspension in TRIZOL, and total RNA was prepared according to manufacturer's instructions (Invitrogen, Carlsbad, Calif.). […] The RNA was then amplified for microarray analysis using a 2 cycle amplification protocol according to the manufacturer's instructions (Affymetrix, Santa Clara, Calif.). The amplified RNAs were then hybridized to Human Genome U133 plus 2.0 microarrays (Affymetrix) and expression data was obtained using an Affymetrix scanner and GCOS protocols. Microarray data was analyzed with GeneSpring Microarray Suite. Results were normalized using a set of 100 probe sets determined by the manufacturer to have relatively invariant expression across most cell types.

adenosine deaminase = test: QRT-PCR in CD14/CD16-separated cell fractions, adenosine deaminase RNA; details: 10 μM MGBG
Experimental: (§5) The changes induced by MGBG in different blood cell types were determined for osteopontin and adenosine deaminase and 7 other genes. For this experiment, blood samples were obtained from 6 healthy controls (3 men/3 women from 20 to 55 years of age) and mononuclear cells were isolated via Percoll gradient centrifugation. The cells were then incubated for 3 hours in RPMI media plus 10% fetal bovine serum at 37 C. At that point MGBG was added to 10 μM to half of each sample and then the cells were incubated at 37 C for 20 more hours. The cells were then bound to magnetic beads coated with antibodies to human CD16. Bound cells (CD16 expressing) were separated from unbound cells using an AutoMACs according to manufacturer's instructions (Miltenyi, Auburn Calif.). Then CD16+ cells are released from the magnetic beads and both the CD16+ and CD16− cells are combined with magnetic beads coated with antibodies to human CD14. Antibody bound and unbound cells were then separated using the AutoMACs machine. […] Cells that neither express CD16 nor CD14 (the −/− Cells). This is mostly T lymphocytes; 2. Cells that only express CD16. This includes contaminating granulocytes not removed by Percoll centrifugation and CD16+ monocytes with very low CD14 expression; 3. Cells that express both CD16 and CD14. This includes monocytes that are expressing CD16+ and macrophages (which express high levels of both); and 4. Cells that only express CD14. This would include most normal human monocytes. After separation, cells of each fraction are washed with PBS and the number of viable cells determined by trypan blue exclusion. RNA is then prepared from each cell group using TRIZOL, according to manufacturer's instructions.

IL1RN = test: Quantitative RT-PCR, unsorted mononuclear cells, IL1RN
Experimental: as §1, §2, §3

FCGR1a = test: Quantitative RT-PCR, unsorted mononuclear cells, FCGR1A
Experimental: as §1, §2, §3

IL24 = test: Microarray analysis of mononuclear cells, IL24; details: for IL24 signal +, Average: 10 μM MGBG
Experimental: as §4

GPR43 = test: QRT-PCR in CD14/CD16-separated cell fractions, GPR43 RNA; details: CD14/CD16++ macrophages, 10 μM MGBG, p=0.03
Experimental: as §5, with “Cells that express both CD16 and CD14. This includes monocytes that are expressing CD16+ and macrophages (which express high levels of both); and 4. Cells that only express CD14. This would include most normal human monocytes.” left out, “RNA is then prepared from each cell group using TRIZOL, according to manufacturer's instructions.” left out

LILRA1 = test: Microarray analysis of mononuclear cells, LILRA1; details: for LILRA1 signal +, Average: 10 μM MGBG
Experimental: as §4

SPP1 = test: Microarray analysis of mononuclear cells, SPP1; details: for SPP1 signal +, Average: 10 μM MGBG
Experimental: as §4

SGNE1 = test: Microarray analysis of mononuclear cells, SGNE1; details: for SGNE1 signal +, Average: 10 μM MGBG
Experimental: as §4

CD14+ cells = test: Yield of CD14+ cells in culture, flow cytometry; details: 10 μM MGBG; for % Reduction 14, Average: 5th day
MX2 = test: Quantitative RT-PCR, unsorted mononuclear cells, MX2
Experimental: as §1, §2, §3

[3] = 10 μM MGBG overnight, untreated vs treated, negative = fold reduction, individual samples
[4] = 10 μM MGBG, all unsorted samples
[5] = average of control samples (C6-, M6-177)
[6] = 10 μM, individual donor samples
[7] = presence of 10 μM MGBG overnight, individual donor samples
[8] = 10 μM MGBG overnight, individual samples

CC(/C=N/NC(=N)N)=N\NC(=N)N [MGBG, 1,1′ [methylethanediylidene]dinitrilodiguanidine]
Fold change ADA by QRT-PCR (ADA [1]; [3]): 16.80 fold and 4.69 fold and 18.77 fold and 2.33 fold and 13.00 fold and 3.34 fold and 5.90 fold and 10.06 fold and 7.52 fold and 4.23 fold and 7.21 fold and 1.38 fold and −0.73 fold and 6.68 fold and 3.01 fold and 3.76 fold and 1.16 fold and 7.16 fold | Fold change ADA, AVERAGE (ADA [1]; [4]): 6.5 fold | Fold change ADA, MAX (ADA [1]; [4]): 18.8 fold | Fold change ADA, MIN (ADA [1]; [4]): −0.7 fold | ADA % >2 fold Changed (ADA [1]; share of samples, 10 μM MGBG): 83% | ADA regulation by MGBG (ADA [1]; upregulated in all but one sample): strongly induced | ADA signal +, Average (ADA [2]; average of HIV samples): 4029 | ADA signal +, Average (ADA [2]; [5]): 5520 | ADA fold change, MGBG/ON ratio (up-regulation) (ADA [2]; [6]): 3.2 fold (2×) and 2.9 fold and 5.6 fold and 3.6 fold (2×) and 3.7 fold and 4.2 fold and 51.2 fold and 14.6 fold and 5.9 fold and 2.0 fold and 18.3 fold and 2.3 fold and 22.3 fold | ADA regulation by MGBG (ADA [2]; all samples tested): consistently up-regulated | ADA signal + (ADA [2]; [7]): 769 and 6724 and 6874 and 1964 and 7488 and 5384 and 2900 and 5895 and 5781 and 6428 and 6731 and 1845 and 4290 and 832 and 5472 | ADA transcription median change (increase) (adenosine deaminase; CD14+ monocytes, p=0.0156): 10.8 fold | ADA transcription median change (increase) (adenosine deaminase; CD14/CD16++ cells): 2.8 fold | ADA transcription change (adenosine deaminase; Double negative cells and CD16+ cells): did not change significantly | Fold change IL1RN by QRT-PCR (IL1RN; [3]): −10.41 fold and −3.73 fold and 1.12 fold and −1.73 fold and −1.36 fold and −14.22 fold and −1.87 fold and −1.78 fold and 8.63 fold and −2.27 fold and 1.59 fold and −8.17 fold and −19.56 fold and −1.77 fold and −4.92 fold and −2.31 fold and −8.28 fold and −17.75 fold | Fold change IL1RN, AVERAGE (IL1RN; [4]): −4.9 fold | Fold change IL1RN, MAX (IL1RN; [4]): 8.6 fold | Fold change IL1RN, MIN (IL1RN; [4]): −19.6 fold | IL1RN % >2 fold Changed (IL1RN; share of samples, 10 μM MGBG): 55% | samples with IL1RN down-regulated (IL1RN; unsorted samples): 15 out of 18 | Fold change FCGR1A by QRT-PCR (FCGR1a; [8]): −1.61 fold and −1.84 fold and −1.01 fold and −1.72 fold and −3.73 fold and 1.72 fold and 5.94 fold and 2.39 fold and −1.97 fold and 19.03 fold and 1.16 fold and −0.41 fold and −0.43 fold and −10.78 fold and −17.15 fold and −2.22 fold and −3.86 fold and 1.05 fold | FCGR1A AVERAGE (FCGR1a; 10 μM MGBG, all samples): 2.25 fold | FCGR1A MAX (FCGR1a; 10 μM MGBG, all samples): 19.03 fold | FCGR1A MIN (FCGR1a; 10 μM MGBG, all samples): −17.15 fold | IL24 signal +, Average (IL24; average of HIV samples): 560 | IL24 signal +, Average (IL24; [5]): 598 | IL24 fold change, MGBG/ON ratio (up-regulation) (IL24; [6]): 5.4 fold and 1.2 fold (2×) and 3.3 fold and 0.3 fold and 0.5 fold and 0.2 fold and 5.5 fold and 2.6 fold and 4.5 fold (2×) and 0.03 fold and 192.1 fold and 0.6 fold and 26.0 fold | IL24 regulation after MGBG exposure (IL24; HIV infected samples but not controls): upregulated | IL24 signal + (IL24; [7]): 111 and 85 and 1940 and 178 and 375 and 578 and 206 and 1549 and 925 and 163 and 166 and 350 and 1364 and 59 and 577 | GPR43 expression median signal relative to no MGBG (GPR43): 2.4 | LILRA1 signal +, Average (LILRA1; average of HIV samples): 77 | LILRA1 signal +, Average (LILRA1; [5]): 133 | LILRA1 fold change, ON/MGBG ratio (down-regulation) (LILRA1; [6]): 6.5 fold and 1.8 fold and 0.3 fold (2×) and 11.6 fold and 3.7 fold and 3.1 fold and 13.8 fold and 2.4 fold and 0.5 fold and 1.1 fold and 2.9 fold and 14.6 fold and 1.3 fold (2×) | samples with LILRA1 down-regulated more than 2 fold (LILRA1; HIV samples): 5 of 9 | LILRA1 signal + (LILRA1; [7]): 40 and 129 and 10 and 65 and 246 and 73 and 42 and 99 and 94 and 212 and 277 and 21 and 1 and 15 and 164 | SPP1 signal +, Average (SPP1; average of HIV samples): 498 | SPP1 signal +, Average (SPP1; [5]): 633 | SPP1 fold change, ON/MGBG ratio (down-regulation) (SPP1; [6]): 60.5 fold and 47.8 fold and 11.5 fold and 43.9 fold and 0.7 fold and 7.0 fold and 2.3 fold and 438.8 fold and 1.4 fold and 5.7 fold and 5.9 fold and 68.0 fold and 57.9 fold and 4.2 fold and 1.2 fold | samples with 2 fold or greater reductions in SPP1 signal (SPP1; of the 15 samples evaluated): 12 | SPP1 signal + (SPP1; [7]): 1480 and 113 and 34 and 143 and 458 and 53 and 81 and 264 and 232 and 1519 and 1647 and 64 and 22 and 1684 and 487 | SGNE1 signal +, Average (SGNE1; average of HIV samples): 23 | SGNE1 signal +, Average (SGNE1; [5]): 13 | SGNE1 fold change, ON/MGBG ratio (down-regulation) (SGNE1; [6]): 3.3 fold and 7.4 fold and 1.9 fold and 14.4 fold and 53.3 fold and 4.7 fold and 9.3 fold and 58.8 fold and 2.4 fold and 3.0 fold and 45.5 fold and 159.8 fold and 10.1 fold and 63 fold and 0.8 fold | samples with 2 fold or greater reductions in SGNE1 signal (SGNE1; of the 15 samples evaluated): 13 | SGNE1 signal + (SGNE1; [7]): 17 and 7 and 10 and 13 (3×) and 12 and 2 (2×) and 3 and 45 and 14 and 8 and 79 and 44 | % Reduction 14 (CD14+ cells; 5th day of culture, individual donor samples (HIV or healthy)): 26% (2×) and 21% and 53% and 76% and 31% and <0% and 58% | % Reduction 14, Average (CD14+ cells; average of HIV samples): 46.8% | % Reduction 14, Average (CD14+ cells; average of healthy samples): 28.5% | Fold change MX2 by QRT-PCR (MX2; [8]): 2.03 fold and −1.09 fold and 1.16 fold (2×) and −1.01 fold and 4.35 fold and 1.56 fold and −2.81 fold and 3.07 fold and −1.33 fold and −1.77 fold and −3.27 fold and 1.36 fold and 1.13 fold and −2.11 fold and −2.85 fold and 1.23 fold and 6.06 fold | MX2 AVERAGE (MX2; 10 μM MGBG, all samples): 1.55 fold | MX2 MAX (MX2; 10 μM MGBG, all samples): 6.06 fold | MX2 MIN (MX2; 10 μM MGBG, all samples): −3.27 fold
